Experimental data: the supplement of paper PMC10307832

Key:
Assay in all cases: relative viability (nuclei count vs DMSO), 5 days (fraction); higher = more cells survive
201T = system: 201T
Summary of the method: (§1)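 Five library-drug doses in √10 steps were combined with a fixed anchor-drug dose, or a single drug was given alone, by pin tool to lung cancer cell lines in 1536-well plates the day after seeding. Nuclei were stained and counted after 5 days. Relative viability is the nuclei count in treated wells over that in vehicle wells, taken as the median of duplicate plates.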

NCI-H647 = system: NCI-H647
Summary of the method: as §1

HCC-15 = system: HCC-15
Summary of the method: as §1

COR-L 105 = system: COR-L 105
Summary of the method: as §1

NCI-H1651 = system: NCI-H1651
Summary of the method: as §1

EKVX = system: EKVX
Summary of the method: as §1

NCI-H661 = system: NCI-H661
Summary of the method: as §1

H3255 = system: H3255
Summary of the method: as §1

ABC-1 = system: ABC-1
Summary of the method: as §1

COR-L23 = system: COR-L23
Summary of the method: as §1

NCI-H1650 = system: NCI-H1650
Summary of the method: as §1

NCI-H1437 = system: NCI-H1437
Summary of the method: as §1

LCLC-103H = system: LCLC-103H
Summary of the method: as §1

NCI-H2087 = system: NCI-H2087
Summary of the method: as §1

HCC-827 = system: HCC-827
Summary of the method: as §1

NCI-H520 = system: NCI-H520
Summary of the method: as §1

NCI-H727 = system: NCI-H727
Summary of the method: as §1

EPLC-272H = system: EPLC-272H
Summary of the method: as §1

NCI-H1975 = system: NCI-H1975
Summary of the method: as §1

NCI-H358 = system: NCI-H358
Summary of the method: as §1

UMC-11 = system: UMC-11
Summary of the method: as §1

Q: How did the relative viability (201T; first compound 0.08 µM) turn out when `O=c1[nH]c2ccccc2n1C1CCN(CCCC(c2ccc(F)cc2)c2ccc(F)cc2)CC1` [Pimozide] + COc1cc2c(Oc3ccc(NC(=O)C4(C(=O)Nc5ccc(F)cc5)CC4)cc3F)ccnc2cc1OCCCN1CCOCC1 [Foretinib] (partner 0.25 µM) was run?
A: Its relative viability is 1.08.

Q: And the relative viability (201T; first compound 0.253 µM)?
A: Its relative viability is 1.06.

Q: And the relative viability (201T; first compound 0.8 µM)?
A: Its relative viability is 0.979.

Q: What about the relative viability (201T; first compound 2.53 µM) of the same compound?
A: The relative viability was 1.02.

Q: And the relative viability (201T; first compound 8 µM)?
A: Its relative viability is 0.909.

Q: And the relative viability (NCI-H647; first compound 0.08 µM)?
A: Its relative viability is 1.28.

Q: What about the relative viability (NCI-H647; first compound 0.253 µM) of the same compound?
A: The relative viability was 1.17.

Q: And the relative viability (NCI-H647; first compound 0.8 µM)?
A: Its relative viability is 1.14.

Q: What about the relative viability (NCI-H647; first compound 2.53 µM) of the same compound?
A: Its relative viability is 1.22.

Q: And the relative viability (NCI-H647; first compound 8 µM)?
A: Its relative viability is 1.17.

Q: What about the relative viability (HCC-15; first compound 0.08 µM) of the same compound?
A: Its relative viability is 1.09.

Q: And the relative viability (HCC-15; first compound 0.253 µM)?
A: The relative viability was 1.01.

Q: And the relative viability (HCC-15; first compound 0.8 µM)?
A: Its relative viability is 0.868.

Q: What about the relative viability (HCC-15; first compound 2.53 µM) of the same compound?
A: Its relative viability is 0.964.

Q: What about the relative viability (HCC-15; first compound 8 µM) of the same compound?
A: Its relative viability is 0.94.

Q: What about the relative viability (COR-L 105; first compound 0.253 µM) of the same compound?
A: The relative viability was 1.01.

Q: What about the relative viability (COR-L 105; first compound 0.8 µM) of the same compound?
A: The relative viability was 0.99.

Q: What about the relative viability (COR-L 105; first compound 2.53 µM) of the same compound?
A: The relative viability was 0.876.

Q: What about the relative viability (COR-L 105; first compound 8 µM) of the same compound?
A: The relative viability was 0.779.

Q: And the relative viability (NCI-H1651; first compound 0.08 µM)?
A: The relative viability was 0.763.

Q: What about the relative viability (NCI-H1651; first compound 0.253 µM) of the same compound?
A: Its relative viability is 0.717.

Q: And the relative viability (NCI-H1651; first compound 0.8 µM)?
A: The relative viability was 0.867.

Q: What about the relative viability (NCI-H1651; first compound 2.53 µM) of the same compound?
A: Its relative viability is 0.871.

Q: What about the relative viability (NCI-H1651; first compound 8 µM) of the same compound?
A: The relative viability was 0.869.

Q: And the relative viability (EKVX; first compound 0.08 µM)?
A: The relative viability was 0.196.

Q: What about the relative viability (EKVX; first compound 0.253 µM) of the same compound?
A: The relative viability was 0.827.

Q: And the relative viability (EKVX; first compound 0.8 µM)?
A: Its relative viability is 0.764.

Q: What about the relative viability (EKVX; first compound 2.53 µM) of the same compound?
A: Its relative viability is 0.747.

Q: And the relative viability (EKVX; first compound 8 µM)?
A: Its relative viability is 0.908.

Q: What about the relative viability (NCI-H661; first compound 0.08 µM) of the same compound?
A: The relative viability was 1.02.

Q: And the relative viability (NCI-H661; first compound 0.253 µM)?
A: Its relative viability is 1.03.

Q: And the relative viability (NCI-H661; first compound 0.8 µM)?
A: Its relative viability is 0.929.

Q: And the relative viability (NCI-H661; first compound 2.53 µM)?
A: The relative viability was 0.921.

Q: What about the relative viability (NCI-H661; first compound 8 µM) of the same compound?
A: Its relative viability is 0.907.

Q: What about the relative viability (H3255; first compound 0.253 µM) of the same compound?
A: The relative viability was 0.781.

Q: What about the relative viability (H3255; first compound 0.8 µM) of the same compound?
A: Its relative viability is 0.775.

Q: What about the relative viability (H3255; first compound 2.53 µM) of the same compound?
A: Its relative viability is 0.78.

Q: And the relative viability (H3255; first compound 8 µM)?
A: The relative viability was 0.894.

Q: What about the relative viability (ABC-1; first compound 0.08 µM) of the same compound?
A: The relative viability was 1.11.

Q: What about the relative viability (ABC-1; first compound 0.253 µM) of the same compound?
A: Its relative viability is 0.995.

Q: What about the relative viability (ABC-1; first compound 0.8 µM) of the same compound?
A: Its relative viability is 0.723.

Q: And the relative viability (ABC-1; first compound 2.53 µM)?
A: The relative viability was 0.891.

Q: And the relative viability (ABC-1; first compound 8 µM)?
A: The relative viability was 0.767.

Q: What about the relative viability (COR-L23; first compound 0.08 µM) of the same compound?
A: Its relative viability is 1.01.

Q: What about the relative viability (COR-L23; first compound 0.253 µM) of the same compound?
A: Its relative viability is 0.951.

Q: What about the relative viability (COR-L23; first compound 0.8 µM) of the same compound?
A: Its relative viability is 0.909.

Q: What about the relative viability (COR-L23; first compound 2.53 µM) of the same compound?
A: Its relative viability is 1.05.

Q: What about the relative viability (COR-L23; first compound 8 µM) of the same compound?
A: The relative viability was 0.905.

Q: What about the relative viability (NCI-H1650; first compound 0.08 µM) of the same compound?
A: The relative viability was 0.72.

Q: What about the relative viability (NCI-H1650; first compound 0.253 µM) of the same compound?
A: Its relative viability is 1.23.

Q: And the relative viability (NCI-H1650; first compound 0.8 µM)?
A: Its relative viability is 0.959.

Q: What about the relative viability (NCI-H1650; first compound 2.53 µM) of the same compound?
A: Its relative viability is 1.17.

Q: What about the relative viability (NCI-H1650; first compound 8 µM) of the same compound?
A: The relative viability was 0.933.

Q: And the relative viability (NCI-H1437; first compound 0.08 µM)?
A: The relative viability was 1.27.

Q: What about the relative viability (NCI-H1437; first compound 0.253 µM) of the same compound?
A: Its relative viability is 1.21.

Q: What about the relative viability (NCI-H1437; first compound 0.8 µM) of the same compound?
A: The relative viability was 1.21.

Q: And the relative viability (NCI-H1437; first compound 2.53 µM)?
A: Its relative viability is 1.28.

Q: What about the relative viability (NCI-H1437; first compound 8 µM) of the same compound?
A: The relative viability was 1.18.

Q: And the relative viability (LCLC-103H; first compound 0.08 µM)?
A: The relative viability was 0.946.

Q: And the relative viability (LCLC-103H; first compound 0.253 µM)?
A: The relative viability was 0.716.

Q: What about the relative viability (LCLC-103H; first compound 0.8 µM) of the same compound?
A: The relative viability was 0.747.

Q: What about the relative viability (LCLC-103H; first compound 2.53 µM) of the same compound?
A: The relative viability was 0.678.

Q: And the relative viability (LCLC-103H; first compound 8 µM)?
A: The relative viability was 0.591.

Q: What about the relative viability (NCI-H2087; first compound 0.08 µM) of the same compound?
A: The relative viability was 1.21.

Q: And the relative viability (NCI-H2087; first compound 0.253 µM)?
A: Its relative viability is 0.984.

Q: And the relative viability (NCI-H2087; first compound 2.53 µM)?
A: Its relative viability is 1.17.

Q: And the relative viability (NCI-H2087; first compound 8 µM)?
A: The relative viability was 1.09.

Q: What about the relative viability (HCC-827; first compound 0.253 µM) of the same compound?
A: The relative viability was 1.01.

Q: And the relative viability (HCC-827; first compound 0.8 µM)?
A: Its relative viability is 0.915.

Q: What about the relative viability (HCC-827; first compound 2.53 µM) of the same compound?
A: Its relative viability is 0.967.

Q: What about the relative viability (HCC-827; first compound 8 µM) of the same compound?
A: The relative viability was 0.904.

Q: And the relative viability (NCI-H520; first compound 0.08 µM)?
A: The relative viability was 0.886.

Q: What about the relative viability (NCI-H520; first compound 0.253 µM) of the same compound?
A: Its relative viability is 0.779.

Q: What about the relative viability (NCI-H520; first compound 0.8 µM) of the same compound?
A: The relative viability was 0.618.

Q: What about the relative viability (NCI-H520; first compound 2.53 µM) of the same compound?
A: Its relative viability is 0.916.

Q: What about the relative viability (NCI-H520; first compound 8 µM) of the same compound?
A: Its relative viability is 0.898.

Q: What about the relative viability (NCI-H727; first compound 0.08 µM) of the same compound?
A: The relative viability was 0.679.

Q: And the relative viability (NCI-H727; first compound 0.253 µM)?
A: Its relative viability is 0.87.

Q: And the relative viability (NCI-H727; first compound 0.8 µM)?
A: The relative viability was 0.798.

Q: And the relative viability (NCI-H727; first compound 2.53 µM)?
A: The relative viability was 0.722.

Q: What about the relative viability (NCI-H727; first compound 8 µM) of the same compound?
A: Its relative viability is 0.782.

Q: And the relative viability (EPLC-272H; first compound 0.08 µM)?
A: Its relative viability is 0.631.

Q: What about the relative viability (EPLC-272H; first compound 0.253 µM) of the same compound?
A: Its relative viability is 0.667.

Q: And the relative viability (EPLC-272H; first compound 0.8 µM)?
A: Its relative viability is 0.539.

Q: And the relative viability (EPLC-272H; first compound 2.53 µM)?
A: The relative viability was 0.175.

Q: What about the relative viability (EPLC-272H; first compound 8 µM) of the same compound?
A: Its relative viability is 0.567.

Q: What about the relative viability (NCI-H1975; first compound 0.08 µM) of the same compound?
A: Its relative viability is 0.948.

Q: And the relative viability (NCI-H1975; first compound 0.253 µM)?
A: The relative viability was 0.84.

Q: And the relative viability (NCI-H1975; first compound 0.8 µM)?
A: The relative viability was 1.02.

Q: And the relative viability (NCI-H1975; first compound 2.53 µM)?
A: The relative viability was 0.847.

Q: And the relative viability (NCI-H1975; first compound 8 µM)?
A: The relative viability was 0.952.

Q: And the relative viability (NCI-H358; first compound 0.08 µM)?
A: Its relative viability is 0.671.

Q: What about the relative viability (NCI-H358; first compound 0.253 µM) of the same compound?
A: Its relative viability is 0.661.

Q: And the relative viability (NCI-H358; first compound 0.8 µM)?
A: Its relative viability is 0.578.

Q: And the relative viability (NCI-H358; first compound 2.53 µM)?
A: The relative viability was 0.562.

Q: What about the relative viability (NCI-H358; first compound 8 µM) of the same compound?
A: The relative viability was 0.695.

Q: What about the relative viability (UMC-11; first compound 0.08 µM) of the same compound?
A: Its relative viability is 1.05.

Q: What about the relative viability (UMC-11; first compound 0.253 µM) of the same compound?
A: The relative viability was 1.01.

Q: And the relative viability (UMC-11; first compound 0.8 µM)?
A: Its relative viability is 1.

Q: And the relative viability (UMC-11; first compound 2.53 µM)?
A: The relative viability was 1.14.

Q: What about the relative viability (UMC-11; first compound 8 µM) of the same compound?
A: The relative viability was 1.07.
